Several values for one entry are separate records, joined by “and”; a condition that tells them apart may be missing. Equal entries are not always repeated.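 1) Cells in 96-well plates. 2) Compound, 48 h, 5 concentrations. 3) Linear interpolation between surrounding doses. 4) Unreached endpoint = highest concentration. GI50: concentration for 50% inhibition of growth. TGI marks complete inhibition of growth.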
How the values were obtained:
Assay in all cases: growth of human tumour cells (NCI), 48 h
CAKI-1 renal = system: CAKI-1 renal
A549 NSCLC = system: A549 NSCLC
SF-268 CNS = system: SF-268 CNS
A498 renal = system: A498 renal
SNB-75 CNS = system: SNB-75 CNS
UACC-257 melanoma = system: UACC-257 melanoma
TK-10 renal = system: TK-10 renal
OVCAR-4 ovarian = system: OVCAR-4 ovarian
HT29 colon = system: HT29 colon
EKVX NSCLC = system: EKVX NSCLC

Structure (SMILES)	TGI (CAKI-1 renal)	TGI (A549 NSCLC)	TGI (SF-268 CNS)	TGI (A498 renal)	TGI (SNB-75 CNS)	TGI (UACC-257 melanoma)	TGI (TK-10 renal)	TGI (OVCAR-4 ovarian)	TGI (HT29 colon)	TGI (EKVX NSCLC)	GI50 (CAKI-1 renal) [µM]	GI50 (A549 NSCLC) [µM]	GI50 (SF-268 CNS) [µM]	GI50 (A498 renal) [µM]	GI50 (SNB-75 CNS)	GI50 (UACC-257 melanoma)	GI50 (TK-10 renal)	GI50 (OVCAR-4 ovarian) [µM]	GI50 (HT29 colon) [µM]	GI50 (EKVX NSCLC) [µM]
Cc1nc2ccncc2[nH]1	> 100 µM	> 100 µM	> 100 µM	> 100 µM	> 100 µM	> 100 µM	> 100 µM	> 100 µM	> 100 µM	> 100 µM	–	–	–	–	–	–	–	–	–	–
CCOC(=O)C1=C(C)N(NC(N)=O)C2(N)N(NC(N)=O)C(C)=C(C(=O)OCC)C12C#N (stereo not drawn)	> 100 µM	> 100 µM	> 100 µM	> 100 µM	> 100 µM	> 100 µM	–	> 100 µM	> 100 µM	> 100 µM	–	–	–	–	–	–	–	–	–	–
O=C(CCCCN1CCN(CCCCC(=O)Nc2ccccc2C#C/C=C\C#Cc2ccccc2C(F)(F)F)CC1)Nc1ccccc1C#C/C=C\C#Cc1ccccc1C(F)(F)F	> 50 µM	37.6 µM	32.9 µM	22.9 µM	26.9 µM	22.5 µM	36 µM	49.5 µM	26.2 µM	> 50 µM	> 50	12.4	12.3	11.7	10.3 µM	10.8 µM	16.6 µM	16.2	7.11	18
N=C(N)n1cc(/C=N/N=C(N)N)cn1	> 100 µM	> 100 µM	> 100 µM	> 100 µM	> 100 µM	> 100 µM	> 100 µM	> 100 µM	> 100 µM	> 100 µM	–	–	–	–	–	–	–	–	–	–
CCCC(O)[C@@]1(CC)CC(C)C(O)(C2(C)C[C@H](C)[C@@H](C(CC)C(=O)C(C)[C@@H](O)[C@H](C)C3OC(O)(C(CC)C(=O)O)[C@@H](C)C(O)C3CC)O2)O1 (stereo partly drawn)	5.05 µM	5.71 µM	2.21 µM	2.15 µM	2.18 µM	1.94 µM	6.74 µM	6.94 µM	2.09 µM	4.21 µM	–	–	–	–	–	–	–	–	–	–
Cn1cc(-c2ccc3ncc(-c4ccc(CC(=O)Nc5cc(C(C)(C)C)nn5C)cc4)cc3c2)cn1	7.15 µM	> 20 µM	> 20 µM	1.66 µM	> 20 µM	> 20 µM	> 20 µM	5.03 µM	> 20 µM	> 20 µM	0.541	1.44	1.45	0.422	0.37 µM	1.45 µM	1.52 µM	0.687	3.99	1.88
S=C(Sc1ccc(Cl)cc1)Sc1ccc(Cl)cc1	10.3 µM	13.7 µM	6.6 µM	7.9 µM	16.3 µM	16.6 µM	5.27 µM	10.9 µM	3.99 µM	13.6 µM	2.96	2.99	2.1	2.91	3.5 µM	5.04 µM	2.53 µM	3.03	1.95	3.03
O=C(Nc1ccc(-n2cc(-c3ccncc3)c(-c3ccc(Cl)c(O)c3)n2)cc1)c1cc(C(F)(F)F)cc(C(F)(F)F)c1	42.9 µM	22 µM	51.6 µM	35 µM	28.2 µM	> 100 µM	23 µM	54.6 µM	28.9 µM	> 100 µM	7.48	5.43	7.39	14.8	2.82 µM	8.95 µM	7.55 µM	11.2	3.43	22
O=C1c2cccc3c(N4CCOCC4)ccc(c23)C(=O)N1CCN1CCN(CCCCCN2CCN(CCN3C(=O)c4cccc5c(N6CCOCC6)ccc(c45)C3=O)CC2)CC1	> 100 µM	> 100 µM	> 100 µM	> 100 µM	> 100 µM	> 100 µM	> 100 µM	> 100 µM	> 100 µM	> 100 µM	> 100	> 100	> 100	> 100	> 100 µM	74 µM	> 100 µM	> 100	58	> 100
CNC(=O)OCc1nc(SSc2nc(COC(=O)NC)c(COC(=O)NC)n2C)n(C)c1COC(=O)NC	> 100 µM	> 100 µM	> 100 µM	> 100 µM	> 100 µM	> 100 µM	> 100 µM	> 100 µM	> 100 µM	> 100 µM	–	–	–	–	–	–	–	–	–	–
O=C([O-])c1ccc([I+]c2ccccc2)cc1	> 100 µM	> 100 µM	> 100 µM	> 100 µM	> 100 µM	> 100 µM	> 100 µM	> 100 µM	> 100 µM	> 100 µM	–	–	–	–	–	–	–	–	–	–
O=C(O)c1ccccc1C(=O)c1ccco1	> 100 µM	> 100 µM	> 100 µM	> 100 µM	> 100 µM	> 100 µM	> 100 µM	> 100 µM	> 100 µM	> 100 µM	–	–	–	–	–	–	–	–	–	–
O=C1C=CC2(O)OCC3C=C4O[C@@H]5OC6(CCCCC6)O[C@@H]5C4[C@@H]2[C@@H]13 (stereo partly drawn)	48.9 µM	> 100 µM	> 100 µM	> 100 µM	> 100 µM	35 µM	48.6 µM	59.9 µM	50.9 µM	78.7 µM	–	–	–	–	–	–	–	–	–	–
COS(=O)c1cc(Cl)cc(Cl)c1OC(=O)CSSCC(=O)Oc1c(Cl)cc(Cl)cc1S(=O)OC (stereo not drawn)	63.1 µM	47.2 µM	44.9 µM	54.1 µM	80.1 µM	65.3 µM	84 µM	51.6 µM	96.9 µM	41.9 µM	–	–	–	–	–	–	–	–	–	–
CCN(CC)CCNc1n[n+]([O-])c2cc([N+](=O)[O-])ccc2[n+]1[O-]	1.79 µM and 2.7 µM and 1.97 µM	3.11 µM and 3.08 µM and 2.48 µM	8.56 µM and 4.92 µM and 5.23 µM	7.99 µM and 4.69 µM and 6.23 µM	14.5 µM and 14.3 µM and 10 µM	4.14 µM and 3.08 µM and 2.43 µM	14.7 µM and 8.94 µM and 5.88 µM	3.78 µM and 5.62 µM and 6.49 µM	2.41 µM and 2.22 µM and 1.71 µM	8.38 µM and 5.78 µM and 5.3 µM	–	–	–	–	2.01 µM and 1.16 µM and 0.905 µM	1.69 µM and 0.825 µM and 1.07 µM	2.8 µM and 1.42 µM and 1.21 µM	–	–	–
Nc1nc(-c2ccccc2)c(CC(=O)O)s1	> 100 µM	> 100 µM	> 100 µM	> 100 µM	> 100 µM	> 100 µM	> 100 µM	> 100 µM	> 100 µM	> 100 µM	–	–	–	–	–	–	–	–	–	–
COc1ccc([C@@]23Oc4cc(OC)cc(OC)c4[C@]2(O)[C@H](O)[C@H](C(=O)N(C)C)[C@H]3c2ccccc2)cc1	0.225 µM and 0.692 µM and 0.262 µM	–	–	0.0234 µM and 0.00719 µM and 0.0403 µM	–	–	0.0531 µM and 0.15 µM and 0.435 µM	–	–	0.22 µM and 0.17 µM	0.0218	–	0.0152	0.0155	0.0149 µM	0.0309 µM	0.0484 µM	0.0149	–	–
O=C(Nc1nc2ccc(S(=O)(=O)Nc3ccc(C4(C(F)(F)F)CC4)cc3)cc2[nH]1)c1cnccn1	16.2 µM	21.5 µM	20.6 µM	8.17 µM	6.45 µM	23.8 µM	22.5 µM	19.7 µM	14.4 µM	15 µM	4.19	2.88	4.21	2.26	1.53 µM	10.6 µM	8.16 µM	4.61	1.2	3.04
C/C(=N\NC(=S)N1CCC1)c1ccccn1	75.3 µM	37.5 µM	> 100 µM	10.6 µM	> 29.9 µM	1.42 µM	> 79.3 µM	> 56.7 µM	34.5 µM	48.6 µM	–	0.0527	0.00557	–	–	0.00326 µM	0.00375 µM	0.00312	0.00471	–
NC1=NC(c2ccccc2Cl)c2c(n[nH]c2N)N1 (stereo not drawn)	> 100 µM	> 100 µM	> 100 µM	> 100 µM	> 100 µM	> 100 µM	> 100 µM	> 100 µM	–	> 100 µM	10.9	6.96	26.9	17.5	48 µM	94.6 µM	> 100 µM	> 100	–	44.2
CCc1c(OC(C)=O)c2c(NC3OC(COC(C)=O)C(OC(C)=O)C(OC(C)=O)C3OC(C)=O)nc(SC)nc2oc1=O (stereo not drawn)	> 100 µM	> 100 µM	–	> 100 µM	> 100 µM	> 100 µM	> 100 µM	> 100 µM	> 100 µM	> 100 µM	–	–	–	–	–	–	–	–	–	–
CCOC1c2nc3ccccc3nc2-c2ccccc2N1C(C)=O (stereo not drawn)	> 100 µM	> 100 µM	–	> 100 µM	> 100 µM	> 100 µM	–	> 100 µM	> 100 µM	> 100 µM	–	–	–	–	–	–	–	–	–	–
Cc1ccc(S(=O)(=O)Nc2ccccc2C(C)(C)C)cc1	59.3 µM	> 100 µM	–	59.7 µM	> 100 µM	35.4 µM	> 100 µM	> 100 µM	31.9 µM	> 100 µM	–	–	–	–	–	–	–	–	–	–
O=[N+]([O-])/C=C/c1ccc2ccccc2c1	25.7 µM	> 58.5 µM	> 35.6 µM	25.7 µM	5.17 µM	6.63 µM	25.8 µM	26 µM	–	> 55 µM	–	–	–	–	–	–	–	–	–	–
COc1cccc(-c2cc(=O)c3cc(N4CCN(C)CC4)ccc3[nH]2)c1	> 100 µM	> 100 µM	> 100 µM	5.32 µM	65.1 µM	–	94.6 µM	> 100 µM	5.68 µM and 5.83 µM	–	0.722	6.99	4.28	–	0.612 µM	–	13.5 µM	10.6	1.78	2.96

— PubChem BioAssay (NCI)
